Laboratory results reported in paper PMC6102577, “Discovery of Pyrazolo[4,3-c]quinolines Derivatives as Potential Anti-Inflammatory Agents through Inhibiting of NO Production” (Molecules : A Journal of Synthetic Chemistry and Natural …, 2018).
Like-named read-outs stand apart in the source and are kept apart here.

Key:
iNOS mRNA expression = experiment: LPS-induced iNOS mRNA expression in RAW 264.7 cells (RT-PCR); format: cell-based; details: pretreated 2 h, LPS 0.1 μg/mL
Source text: Total RNA was extracted by Trizol-Reagent (Invirogen, Carlsbad, CA, USA) according to the manufacturer’s manual. One microgram of RNA was used for the reverse transcription of first strand cDNA using the oligo dT primers. Five microliters of cDNA were used for the amplification of iNOS and GAPDH (glyceraldehyde 3-phosphate dehydrogenase) mRNA expression. The primers for rat iNOS are as follows, forward: 5′-ACTGCGTCGCTTCATTAGGT-3′ and reverse: 5′-TAGGCAAGCGCTTTACCACT-3′. The primers for rat glyceraldehydes 3-phosphate dehydrogenase are as follows, forward: 5′-ATGGCACAGTCAAGGCTGAGA-3′ reverse: 5′-AGACGCCAGTAGACTCCACGAC-3′. The amplicons were electrophoresed on a 3% agarose gel and band intensities were measured using a spectrophotometer (Thermo Fisher Scientific, Waltham, MA, USA) and normalized against GAPDH.
Figure 3 Inhibitory effects of compound 2i and 2m on LPS-induced iNOS mRNA expression. Cells (5 × 10^5 cells/well) were pretreated with the indicated concentrations of tested compounds for 2 h before incubation with 0.1 μg/mL LPS for 9 h. Total RNA was prepared for RT-PCR analysis of iNOS mRNA expression in LPS-stimulated RAW 264.7 cells. GAPDH were used as internal controls for the RT-PCR assays3.4. Inhibition of LPS-inducible COX-2 expression.

[1] = tested on: LPS-stimulated NO production in RAW 264.7 cells; experiment: Inhibition of LPS-induced NO production (nitrite accumulation, Griess reaction) in RAW 264.7 cells; format: cell-based; details: Mus musculus
Procedure: Treatment of Raw 264.7 cells with LPS (0.1 μg/mL) for 24 h induced NO production which were assessed by measuring the accumulation of nitrite, a stable metabolite of NO, in the media based on Griess reaction. […] However, compound 2a was also highly cytotoxic, in which the survival rate of RAW 264.7 cells was only 9% at a drug concentration of 10 μM. […] The position of substitution play an important role in which substitution at para-position is usually more favorable than its ortho- or meta- counterpart in the inhibitory activity on the LPS-induced NO production. […] Various substituted groups have been introduced on the para-position of the phenyl ring.
Raw 264.7 cells, purchased from Bioresource Collection and Research Center, Taiwan, were cultured in DMEM, supplemented with 5% fetal bovine serum, 100 units/mL of penicillin, 100 μg/mL of streptomycin, 2 mM L-glutamine, and 1 mM non-essential amino acids in a 10-cm plate at a density of 1 × 10^6 cells/mL, at 37 °C in a humidified atmosphere containing 5% CO2.
Nitrite was measured by adding 100 μL of the Griess reagent (1% sulfanilamide and 0.1% N-(1-naphthyl)ethylenediamine dihydrochloride in 5% phosphoric acid) to 100 μL of medium for 5 min. The optical density at 550 nm (OD550) was measured with a microplate reader. Concentrations were calculated by comparison with the OD550 of a standard solution of sodium nitrite prepared in culture medium.

RAW 264.7 cells = experiment: Cell viability (XTT method) of RAW 264.7 cells; format: cell-based; details: compound 10 μM, 24 h, means ± S.D.
Procedure: To evaluate whether the suppressive effect of compounds on NO production is related to cell viability, Raw 264.7 cells were treated with LPS for 24 h, and washed with 500 μL of phosphate buffer solution (PBS) before resuspended in 1 mL of culture medium. Cell viability tests were run in parallel with NO production assays with an initial cell density of 5 × 10^3 cells/well in the presence or absence of test compounds at 10 μM or 0.1% DMSO as control.

iNOS protein expression = experiment: LPS-induced iNOS protein expression in RAW 264.7 cells (western blot); format: cell-based, murine; details: pretreated 2 h, LPS 0.1 μg/mL 24 h
Procedure: (§1) The effects of compounds 2i and 2m on iNOS and COX-2 protein expression in LPS stimulated Raw 264.7 cell were assessed by western blot. Briefly, Raw 264.7 cells were pretreated with tested compound for 2 h before stimulation in the presence or absence of LPS (0.1 μg/mL). Cells were harvested and lysed with RIPA lysis buffer (50 mM Tris–Cl, pH 8.0, 150 mM NaCl, 0.1% SDS, 0.5% NP-40, 1% sodiumdeoxycholate, 1 mM phenylmethyl-sulfonylfluoride, 1 mM EDTA, no added proteinase) at 24 h after treatment. The total protein concentration in the cell lysates was measured according to the method described by Bradford. Equal amounts (15 μg) of protein were loaded and separated by using 8% SDS–PAGE and analyzed by western blot (ECL Amersham, Bensheim, Germany). The relative expression of proteins was quantified densitometrically using the software LabWorks 4.5 and was normalized againstβ-actin.
(§2) Figure 2 Inhibition of iNOS expression by 2i and 2m in LPS-stimulated RAW 264.7 cells. Cells (5 × 10^5 cells/well) were pretreated with the indicated concentrations of tested compounds for 2 h before incubation with 0.1 μg/mL LPS for 24 h. Cell lysates were then prepared and western blots were performed using an antibody specific for murine iNOS.

[2] = NO-scavenging activity (sodium nitroprusside, nitrite by Griess reaction); details: SNP 2.5 mM, compound 10 μM, light, room temperature, 60 min
Procedure: NO-scavenging effects of pyrazolo[4,3-c]quinolines 2i and 2m were measured according to the reported method. Sodium nitroprusside (SNP) (2.5 mM) was incubated alone or in combination with tested compound (10 μM) or 1400W(10 μM) in light at room temperature for 60 min.
To understand the inhibitory effects of compounds 2i and 2m on NO production, sodium nitroprusside (SNP) was freshly prepared at […] in PBS was incubated alone or in combination with 10 µM of the different compounds. SNP is an inorganic complex where NO is found as NO^+ and light irradiation is necessary for the release of NO. Therefore, incubation mixtures were incubated in light at room temperature, and nitrite levels were determined after 60 min by Griess reaction.
Figure 1 NO-scavenging effects of 1400W, compounds 2i and 2m. SNP solution (2.5 mM) in PBS was incubated alone or with tested compound (10 μM) or 1400W (10 μM) in the presence of light at room temperature for 60 min.

COX-2 protein expression = experiment: LPS-inducible COX-2 protein expression in RAW 264.7 cells (western blot); format: cell-based, murine; details: pretreated 2 h, LPS 0.1 μg/mL 24 h
Procedure: as §1
as §2, with “Figure 4” for “Figure 2”, “of COX-2” for “of iNOS”, “by compound” for “by”, “murine COX-2.” for “murine iNOS.”

- IC50 ([1]; RAW264.7, 24 h, RAW 264.7 cells, LPS 0.1 μg/mL 24 h, means ± S.D., read-out: IC50 (inhibition of LPS-induced NO production)): 190 ± 50 nM
- IC50 ([1]; RAW264.7, training dataset, negative logarithm of IC50 values, read-out: Observed pIC50 (converted)): 190 nM
SMILES: Nc1n[nH]c2c1c(Nc1ccc(O)cc1)nc1ccccc12 [Compound 2i, 3-amino-4-(4-hydroxyphenylamino)-1H-pyrazolo[4,3-c]-quinoline]
- Inhibition of LPS-stimulated iNOS mRNA expression (iNOS mRNA expression): inhibited the LPS-stimulated iNOS mRNA production in a dose-dependent manner
- inhibition at 10 µM ([1]; RAW264.7, RAW 264.7 cells, LPS 0.1 μg/mL 24 h, compound 10 μM, means ± S.D., read-out: Percent Inhibition of NO Production at 10 μM): 102 ± 2.63%
- Cell Survival Rate at 10 μM (RAW 264.7 cells): 87.84 ± 0.15%
- Inhibition of LPS-induced iNOS protein expression (iNOS protein expression): more potent inhibitory activities than 2m
- NO-scavenging effect (levels of nitrite from SNP) [2]: did not affect the levels of nitrite
- Inhibition of LPS-induced COX-2 protein expression (COX-2 protein expression): effectively suppressed the induction of COX-2 protein expression by LPS
